Laboratory results taken from patent US8691761B2, “Somatostatin receptor 2 antagonists” (priority 2006, dated 2014).
Entries after “also recorded” stand apart in the source; their conditions may differ. Bridge positions count the residues as written; N and C are the ends. Square brackets hold non-standard residues; d marks the D form. Peptide text beside a SMILES is read from it. * marks the point of attachment. ξ: configuration not given here. DOTA = O=C(O)CN1CCN(CC(=O)O)CCN(CC(=O)*)CCN(CC(=O)O)CC1; dPhe(4-NHCONH2) = NC(=O)Nc1ccc(C[C@@H](N)C(=O)O)cc1; Phe(4-Cl) = N[C@@H](Cc1ccc(Cl)cc1)C(=O)O; ξDihydroorotoyl = O=C1CC(C(=O)*)NC(=O)N1; 2Nal = N[C@@H](Cc1ccc2ccccc2c1)C(=O)O; ξPhe(4-NH2) = Nc1ccc(CC(N)C(=O)O)cc1; NMeK = CN[C@@H](CCCCN)C(=O)O

Legend:
hSSTR2 = biological target: T1, hSSTR2 (Homo sapiens, UniProt P30874); assay: Receptor autoradiography, displacement of 125I-[Leu8,D-Trp22,Tyr25]-SRIF-28 from membrane pellet sections; type: binding; conditions: Table 3; mean ± SEM when N ≧ 3; read-out: sst2 binding affinity (IC50)
T1 construct: expressed in transfected cells; host or cells: CHO-K1 or CCL39 cells

hSSTR4 = biological target: T2, hSSTR4 (Homo sapiens, UniProt P31391); assay: as above; type: binding; conditions: Table 3; mean ± SEM when N ≧ 3; read-out: sst4 binding affinity (IC50)
T2 construct: expressed in transfected cells; host or cells: CHO-K1 or CCL39 cells

hSSTR3 = biological target: T3, hSSTR3 (Homo sapiens, UniProt P32745); assay: as above; type: binding; conditions: Table 3; mean ± SEM when N ≧ 3; read-out: sst3 binding affinity (IC50)
T3 construct: expressed in transfected cells; host or cells: CHO-K1 or CCL39 cells

hSSTR1 = biological target: T4, hSSTR1 (Homo sapiens, UniProt P30872); assay: as above; type: binding; conditions: Table 3; mean ± SEM when N ≧ 3; read-out: sst1 binding affinity (IC50)
T4 construct: expressed in transfected cells; host or cells: CHO-K1 or CCL39 cells

sst2 [1] = biological target: T5, sst2 (Homo sapiens, UniProt P30874); assay: Calcium release assay in HEK-sst2 cells (Fluo-4NW); type: cell-based; parameters: expressed in transfected cells; host or cells: HEK293 (HEK-sst2); conditions: n ≧ 2
Description: Calcium release assay. Intracellular calcium release was measured in HEK-sst2 using the Fluo-4NW Calcium Assay kit as described previously (Magrys, et al. “The role of anti-alpha-enolase autoantibodies in pathogenicity of autoimmune-mediated retinopathy.” J. Clin. Immunol. 2007, 27, 181-192; Michel et al. “The Nef protein of human immunodeficiency virus is a broad-spectrum modulator of chemokine receptor cell surface levels that acts independently of classical motifs for receptor endocytosis and Galphai signaling.” Mol. Biol. Cell. 2006, 17, 3578-3590). In brief, HEK-sst2 cells were seeded (25,000 cells per well) in poly-D-lysine (20 μg/mL) coated 96 well plates and cultured for 1 day at 37° C. and 5% CO2 in culture medium. At the day of the experiment, the cells were washed with assay buffer (1×HBSS, 20 mM HEPES) containing 2.5 mM probenecid, and then loaded with 100 μL/well Fluo-4NW dye in assay buffer containing 2.5 mM probenecid for 30 min at 37° C. and 5% CO2 and then for further 30 min at room temperature. To measure the intracellular calcium mobilization after stimulation with the SRIF analogues to be tested, the dye-loaded cells were transferred to a SpectraMax M2^e (Molecular Devices, Sunnyvale, Calif.). Intracellular calcium mobilization was recorded in a kinetic for 60 sec at room temperature monitoring fluorescence emission at 520 nm (with λex=485 nm) in the presence of the analogues at the concentrations indicated. Maximum fluorescence (Fmax) was measured after the addition of 25 μM ionomycin. Baseline (control) measurements were taken for dye-loaded, untreated cells. Data are shown as percentage of Fmax (% Fmax) as reported previously. (Magrys, et al. J. Clin. Immunol. 2007, 27, 181-192; Michel et al. Mol. Biol. Cell. 2006, 17, 3578-3590). All experiments were repeated at least three times in triplicate.
Target sequence in this assay (P30874 whole entry): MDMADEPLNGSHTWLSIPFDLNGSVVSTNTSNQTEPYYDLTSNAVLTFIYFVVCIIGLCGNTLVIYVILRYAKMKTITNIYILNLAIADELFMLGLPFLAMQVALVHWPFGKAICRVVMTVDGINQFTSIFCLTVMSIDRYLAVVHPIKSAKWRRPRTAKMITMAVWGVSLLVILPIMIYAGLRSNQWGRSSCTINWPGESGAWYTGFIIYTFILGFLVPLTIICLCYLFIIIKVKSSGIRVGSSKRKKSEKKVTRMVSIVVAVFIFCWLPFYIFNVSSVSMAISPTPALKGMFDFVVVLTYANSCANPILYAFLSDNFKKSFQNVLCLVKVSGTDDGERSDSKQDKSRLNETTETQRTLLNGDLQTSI

human sst2A receptor = biological target: T6, human sst2A receptor (Homo sapiens, UniProt P30874); assay: Immunofluorescence-based sst2 internalization assay in HEK-sst2 cells; type: cell-based; conditions: n ≧ 2
T6 construct: expressed in transfected cells; host or cells: HEK293 (HEK-sst2)
Procedure, shortened: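 HEK-sst2 cells treated with vehicle, 100 nM [Tyr^3]-octreotide, octreotide plus 100-fold excess test analogue, or test analogue alone at 10 μM. Receptor internalization visualized by immunofluorescence microscopy with sst2-specific antibody R2-88.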

sst2 [2] = biological target: T5, sst2; conditions: cited from earlier work
Target sequence in this assay (P30874 whole entry, species assumed): as the sequence (P30874 whole entry) above

HEK-sst2 tumors = assay: In vivo biodistribution of radiolabeled peptides in nude mice bearing HEK-sst2 tumors; conditions: mouse, in vivo
Description: The following protocol was used to determine biodistribution
Confirmation that the transfected tumors were indeed expressing solely sst2 was obtained in resected tumor samples tested in vitro with somatostatin receptor autoradiography using subtype selective ligands.
The biodistribution of was studied at 4 h or 24 h after injection. The organs of interest were collected, blotted dry, weighed, their radioactivity measured and the percentage of injected activity per gram (% IA/g) calculated.

[3] = biological target: T7-epitope-tagged human sst2 (Homo sapiens, UniProt P30874); assay: Quantitative assay for sst2 internalization (ELISA) in HEK-sst2 cells; type: cell-based; conditions: FIG. 3
Sequence of T7-epitope-tagged human sst2 (P30874 whole entry): as above
Description: Quantitative assay for sst2 internalization (ELISA) Receptor internalization was determined using an ELISA to quantitate T7-epitope-tagged human sst2 on the cell surface. HEK-sst2 cells were seeded on poly-D-lysine (20 μg/mL) coated 24-well plates (250,000 cells per well) in growth medium and cultured for 1 day at 37° C. and 5% CO2. […] After washing with DMEM-LH to remove unbound antibody, cells were incubated for 30 min at 37° C. and 5% CO2 either without or with the ligands added at the concentrations indicated. Incubations were terminated by placing the plates in an ice bath. Cells were then washed twice with cold PBS and fixed for 10 min at room temperature with 3% paraformaldehyde in PBS (pH 7.4). […] After 3 additional washes with PBS, antibody binding was measured by adding 0.3 mL substrate mix for horseradish peroxidase (ABTS). The OD405 was measured after an approximately 30 min incubation at room temperature. The amount of sst2 remaining at the cell surface after ligand treatment was calculated as the absorbance measured in treated cells expressed as a percentage of the absorbance in untreated cells. Nonspecific absorbance was determined in experiments in which HEK293-sst2 cells were incubated without the anti-T7 antibody. […]

T6 sequence (P30874 whole entry): as above
T4 sequence (P30872 whole entry): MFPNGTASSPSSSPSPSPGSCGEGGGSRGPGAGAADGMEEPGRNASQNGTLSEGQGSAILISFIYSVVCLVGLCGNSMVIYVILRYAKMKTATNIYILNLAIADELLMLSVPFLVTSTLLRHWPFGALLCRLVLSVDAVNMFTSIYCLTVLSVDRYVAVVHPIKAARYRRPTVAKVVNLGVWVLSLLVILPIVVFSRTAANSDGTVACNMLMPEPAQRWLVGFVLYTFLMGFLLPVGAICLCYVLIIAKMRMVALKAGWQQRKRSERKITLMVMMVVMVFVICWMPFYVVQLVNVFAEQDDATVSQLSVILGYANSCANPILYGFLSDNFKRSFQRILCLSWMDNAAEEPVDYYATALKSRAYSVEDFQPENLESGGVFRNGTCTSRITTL
T3 sequence (P32745 whole entry): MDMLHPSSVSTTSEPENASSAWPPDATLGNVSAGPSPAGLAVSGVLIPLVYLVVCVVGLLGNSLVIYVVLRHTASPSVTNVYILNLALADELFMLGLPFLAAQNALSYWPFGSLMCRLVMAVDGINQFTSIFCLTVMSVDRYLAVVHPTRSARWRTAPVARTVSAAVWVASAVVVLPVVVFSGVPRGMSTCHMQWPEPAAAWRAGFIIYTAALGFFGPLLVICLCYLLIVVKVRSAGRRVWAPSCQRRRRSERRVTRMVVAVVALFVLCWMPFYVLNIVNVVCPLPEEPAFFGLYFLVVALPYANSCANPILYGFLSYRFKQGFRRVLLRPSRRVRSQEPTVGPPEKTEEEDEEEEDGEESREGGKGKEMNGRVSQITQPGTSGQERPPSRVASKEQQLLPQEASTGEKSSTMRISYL
T1 sequence (P30874 whole entry): as the sequence (P30874 whole entry) above
T2 sequence (P31391 whole entry): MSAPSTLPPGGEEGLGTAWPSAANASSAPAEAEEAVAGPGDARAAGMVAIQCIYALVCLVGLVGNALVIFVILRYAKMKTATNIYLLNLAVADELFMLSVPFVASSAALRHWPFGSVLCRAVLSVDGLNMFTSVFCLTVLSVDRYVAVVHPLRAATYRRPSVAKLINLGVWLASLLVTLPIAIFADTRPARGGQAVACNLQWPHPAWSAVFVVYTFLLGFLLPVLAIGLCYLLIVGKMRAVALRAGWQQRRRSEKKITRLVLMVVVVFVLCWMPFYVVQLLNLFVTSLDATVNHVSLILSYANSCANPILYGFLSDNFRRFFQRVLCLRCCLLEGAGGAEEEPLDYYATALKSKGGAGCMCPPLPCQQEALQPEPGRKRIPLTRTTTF

IC50 (hSSTR2)	IC50 (hSSTR4)	IC50 (hSSTR3)	IC50 (hSSTR1)	Calcium release tested in vitro in HEK-sst2 cells (function) (sst2 [1])	sst2-internalization tested in vitro in HEK-sst2 cells (function) (human sst2A receptor)	tumor to kidney ratio (in words) (HEK-sst2 tumors)	function in the ELISA internalization assay [3]	SMILES	increase of binding affinity at sst2 versus 7 in Hocart et al. assay (sst2 [2])
10 ± 3.5 nM	715 ± 137 nM	61 ± 14 nM	> 1000 nM	Antagonist	Antagonist	–	–	C[C@@H](O)[C@@H]1NC(=O)[C@H](CCCCN)N(C)C(=O)[C@@H](Cc2c[nH]c3ccccc23)NC(=O)[C@H](Cc2ccc(O)cc2)NC(=O)[C@H](NC(=O)[C@@H](N)Cc2ccc(Cl)cc2)CSSC[C@@H](C(=O)N[C@@H](Cc2ccc3ccccc3c2)C(N)=O)NC1=O [compound 8, H2N-Cpa-c[DCys-Tyr-DTrp-NMeLys-Thr-Cys]-2Nal-NH2, reference compound] (H-[Phe(4-Cl)][dC]Y[dW][NMeK]TC[2Nal]-NH2; disulfide 2-7)	5 fold
–	–	–	–	Antagonist	Antagonist	excellent tumor to kidney ratio	–	C[C@@H](O)[C@@H]1NC(=O)[C@H](CCCCN)NC(=O)[C@@H](Cc2ccc(NC(N)=O)cc2)NC(=O)C(Cc2ccc(NC(=O)C3CC(=O)NC(=O)N3)cc2)NC(=O)[C@H](NC(=O)[C@H](Cc2ccc(Cl)cc2)NC(=O)CN2CCN(CC(=O)O)CCN(CC(=O)O)CCN(CC(=O)O)CC2)CSSC[C@@H](C(=O)N[C@@H](Cc2ccc3ccccc3c2)C(N)=O)NC1=O (stereo partly drawn) [Peptide No. 30, DOTA-Cpa-c[DCys-Aph(Hor)-DAph(Cbm)-Lys-Thr-Cys]-2Nal-NH2] ({DOTA}-[Phe(4-Cl)][dC][ξPhe(4-NH2)](ξDihydroorotoyl)[dPhe(4-NHCONH2)]KTC[2Nal]-NH2; disulfide 2-7)	–

SMILES	IC50 (hSSTR2)	IC50 (hSSTR4)	IC50 (hSSTR3)	IC50 (hSSTR1)	Calcium release tested in vitro in HEK-sst2 cells (function) (sst2 [1])	sst2-internalization tested in vitro in HEK-sst2 cells (function) (human sst2A receptor)	tumor to kidney ratio (in words) (HEK-sst2 tumors)	function in the ELISA internalization assay [3]	increase of binding affinity at sst2 versus 7 in Hocart et al. assay (sst2 [2])
C[C@@H](O)[C@@H]1NC(=O)[C@H](CCCCN)NC(=O)[C@@H](Cc2c[nH]c3ccccc23)NC(=O)[C@H](Cc2ccc(O)c(I)c2)NC(=O)[C@H](NC(=O)[C@H](Cc2ccc([N+](=O)[O-])cc2)NC(=O)CN2CCN(CC(=O)O)CCN(CC(=O)O)CCN(CC(=O)O)CC2)CSSC[C@@H](C(=O)N[C@H](Cc2ccc(O)cc2)C(N)=O)NC1=O [Peptide No. 32, DOTA-pNO2Phe-c[DCys-ITyr-DTrp-Lys-Thr-Cys]-DTyr-NH2]	–	–	–	–	Antagonist	antagonistic property; also recorded: Antagonist	excellent tumor to kidney ratio	antagonistic properties	–
